Measured values taken from patent US20060111305A1, “Metabolites of certain [1,4]diazepino[6,7,1-ij]quinoline derivatives and methods of preparation and use thereof” (Wyeth, priority 2004, published 2006).
Read-outs that look alike come from different tables or passages of the source. Marks after values point to notes of the source that are not given here.

Legend:
[1] = Rat plasma metabolite profiles after single oral 5 mg/kg [14C]DCDQ; format: in vivo, Sprague-Dawley rats; conditions: for concentration at 2 h / concentration at 8 h / concentration at 4 h: Sprague-Dawley, rat, plasma, mean n = 3, read-out: Estimated plasma concentration in rats
Description: Plasma samples were analyzed for metabolite profiles by HPLC. Aliquots of 1.5 mL plasma were mixed with 3.0 mL methanol, placed on ice for about 10 minutes, and then centrifuged. The supernatant was transferred to a clean tube. The protein pellets were extracted once with 3.0 mL methanol. The supernatants from precipitation and extraction of each sample were pooled, mixed, and evaporated at 22° C. under nitrogen in a Zymark TurboVap LV (Caliper Life Sciences, Hopkinton, Mass.) to about 0.3 mL. The concentrated extract was centrifuged, the supernatant volume measured and extraction efficiency was determined by analyzing duplicate 10 μL aliquots for radioactivity. An aliquot of the supernatant (50-200 μL) was analyzed by HPLC with radioactivity flow detection. Plasma extracts were also analyzed by LC/MS.
(§1) A Waters model 2690 HPLC system (Waters Corp., Milford, Mass.) with a built-in autosampler was used for analysis. Separations were accomplished on a Phenomenex Luna C18(2) column (150×2.0 mm, 5 μm) (Phenomenex, Torrance, Calif.). The sample chamber of the autosampler was maintained at 4° C., while the column was at ambient temperature of about 20° C. A variable wavelength UV detector set to monitor 250 nm and a Flo-One β Model A525 radioactivity detector described above were used for data acquisition. The HPLC mobile phase consisted of 10 mM ammonium acetate, pH 4.5 (A) and methanol (B), and was delivered at 0.2 mL/min. Chromatographic condition A was used for dose analysis, while condition B was used for analysis of urine and plasma, brain and fecal extracts.

[2] = Dog fecal excretion and metabolite profiles after oral capsule of [14C]DCDQ; format: in vivo, beagle dogs
Description: Blood samples were collected from the jugular vein at 2, 4, 8, 24 and 48 hour after dose administration into tubes containing potassium EDTA as the anticoagulant and then placed on ice. Aliquots of 50 μL were removed for combustion and determination of radioactivity content. Plasma was immediately obtained from the remaining blood by centrifugation at 4° C. Urine samples were collected into tubes on dry ice at intervals of 0-8, 8-24 and 24-48 hour post-dose. Fecal samples were collected at intervals of 0-8, 8-24 and 24-48 hour post-dose at room temperature, and were homogenized. The biological specimens were stored at approximately −70° C. until analysis.
Feces were weighed and homogenized in water at a volume-to-weight ratio of about 5:1. Aliquots of blood (200 μL) and fecal homogenates (0.25-0.53 gram) were placed on Combusto-cones with Combusto-pads and combusted. A model 307 Tri-Carb sample oxidizer, equipped with an Oximate-80 robotic automatic sampler (Perkin Elmer), was used for combustion of blood and fecal samples. The liberated ^14CO2 was trapped with Carbo-Sorb E carbon dioxide absorber, mixed with PermaFluor® E+ liquid scintillation cocktail, and counted on a Tri-Carb Model 3100 TR/LL liquid scintillation counter (Perkin Elmer). The efficiency of combustion was 98.9%.
Fecal homogenates were analyzed for metabolite profiles. Aliquots of 1 gram of fecal homogenate were mixed with 2 mL methanol, placed on ice for about 10 minutes and centrifuged. The supernatant was transferred to a clean tube. The residue was extracted three times with 2 mL of a water:methanol (3:7) mixture. The supernatants from each sample were combined, evaporated to about 1 mL, and centrifuged. Extraction efficiency was determined by analyzing aliquots of 10 μL of the supernatant for radioactivity. An aliquot (50-200 μL) of the supernatant was analyzed by HPLC with radioactivity flow detection for metabolite profiles. Samples were also analyzed by LC/MS to characterize the radioactive peaks.
as §1, with “detector” for “detector described above”, “acetonitrile” for “methanol”

[3] = test system: cryopreserved human hepatocytes; test: Incubation of [14C]DCDQ with cryopreserved human hepatocytes; format: in vitro ADME; conditions: 4 hours
Description: Vials containing cryopreserved human hepatocytes were thawed in a 37° C. water bath with gentle shaking until the ice was almost melted. The vials were removed from the water bath and gentle shaking continued at room temperature for 30-60 seconds until completely thawed. The hepatocyte suspensions from each vial were immediately transferred to pre-cooled 50 mL beakers on ice. To each beaker, 12 mL of ice-cold hepatocyte suspension media was added dropwise over one minute, with occasional, gentle shaking by hand to prevent the cells from settling. The cell suspensions were transferred to a 15 mL tube and centrifuged at 100 g force for 3 min at 4° C. (Model T21 super centrifuge, Sorvall). The supernatant was discarded and the pellets were re-suspended in 4 mL of ice-cold hepatocyte culture media. The cell suspensions contained approximately 3.1×10^6 viable hepatocytes/mL. The average viability was 76.0% as determined using Trypan Blue exclusion and a hemacytometer.
The cell suspensions were distributed into 12-well plates at 1.0 mL per well. Incubations were performed using pooled hepatocytes from two donors. [^14C]DCDQ in water was added to the hepatocyte suspension at a final concentration of 10 or 50 μM. Incubations were carried out at 37° C. for 4 hours in an incubator supplied with 5% CO2. At the end of the incubation, the reaction was stopped by the addition of 200 μL cold methanol to each well. The content of each well was transferred to a 15 mL centrifuge tube and sonicated for 30 seconds. After vortex mixing with 6 mL methanol and then centrifugation, the supernatant was transferred to a clean tube and evaporated to about 0.5 mL in a TurboVap evaporator. The residue was analyzed by HPLC and LC/MS.
A Waters model 2690 HPLC system (Waters Corp., Milford, Mass.) with a built-in autosampler was used for analysis. […] A variable wavelength UV detector set to monitor 250 nm and Flo-One β Model A525 radioactivity flow detector (Perkin Elmer) with a 250 μL LQTR flow cell were used for data acquisition. […]

concentration at 2 h ([1]; female, 2 hr)	concentration at 8 h ([1]; female, 8 hr)	concentration at 2 h ([1]; male, 2 hr)	concentration at 4 h ([1]; male, 4 hr)	concentration at 8 h ([1]; male, 8 hr)	Chromatographic distribution of radioactivity in rat plasma ([1]; female, 2 hr, mean n = 3)	Chromatographic distribution of radioactivity in rat plasma ([1]; female, 8 hr, mean n = 3)	Chromatographic distribution of radioactivity in rat plasma ([1]; male, 2 hr, mean n = 3)	Chromatographic distribution of radioactivity in rat plasma ([1]; male, 4 hr, mean n = 3)	Chromatographic distribution of radioactivity in rat plasma ([1]; male, 8 hr, mean n = 3)	Estimated plasma concentration in rats ([1]; female, 2 hr, mean n = 3)	metabolite detected in feces [2]	relative abundance of metabolite in human hepatocytes ([3]; 50 μM DCDQ)	metabolite detected in human hepatocyte incubations ([3]; 10 or 50 μM DCDQ)	Structure (SMILES)
	4.4 ng/mL	32.3 ng/mL	22.6 ng/mL	20 ng/mL	BQL	1.5^e %	5.2%	3.4%	4.3%	BQL	detected			OC1[C@@H]2CCC[C@@H]2c2cccc3c2N1CCNC3 (some centres unmarked) [Metabolite M2, hydroxy DCDQ]
											not detected	most prominent metabolite		O=C(O)[C@H]1O[C@@H](OC(=O)N2CCN3C[C@@H]4CCC[C@@H]4c4cccc(c43)C2)[C@H](O)[C@@H](O)[C@@H]1O [Metabolite M6, carbamoyl glucuronide of DCDQ]
35.6 ng/mL	17.5 ng/mL	63.6 ng/mL	62.1 ng/mL	53 ng/mL	5.4^d %	5.6%	10%	9.4%	12%				detected	O=C1CC[C@@H]2c3cccc4c3N(CCNC4)C[C@H]12 [Metabolite M7, 17-keto DCDQ]

Further lines, the compound ahead of its results:

Structure (SMILES)	concentration at 2 h ([1]; female, 2 hr)	concentration at 8 h ([1]; female, 8 hr)	concentration at 2 h ([1]; male, 2 hr)	concentration at 4 h ([1]; male, 4 hr)	concentration at 8 h ([1]; male, 8 hr)	Chromatographic distribution of radioactivity in rat plasma ([1]; female, 2 hr, mean n = 3)	Chromatographic distribution of radioactivity in rat plasma ([1]; female, 8 hr, mean n = 3)	Chromatographic distribution of radioactivity in rat plasma ([1]; male, 2 hr, mean n = 3)	Chromatographic distribution of radioactivity in rat plasma ([1]; male, 4 hr, mean n = 3)	Chromatographic distribution of radioactivity in rat plasma ([1]; male, 8 hr, mean n = 3)	Estimated plasma concentration in rats ([1]; female, 2 hr, mean n = 3)	metabolite detected in feces [2]	relative abundance of metabolite in human hepatocytes ([3]; 50 μM DCDQ)	metabolite detected in human hepatocyte incubations ([3]; 10 or 50 μM DCDQ)
c1cc2c3c(c1)[C@H]1CCC[C@H]1CN3CCNC2 [DCDQ, (9aR,12aS)-4,5,6,7,9,9a,10,11,12,12a-decahydro-cyclopenta[c][1,4]diazepine[6,7,1-ij]quinoline, reference compound]	132 ng/mL	49.4 ng/mL	86.9 ng/mL	90.8 ng/mL	58.7 ng/mL	20%	15%	14%	14%	13%				
OC1CN2C[C@@H]3CCC[C@@H]3c3cccc(c32)CN1 (some centres unmarked) [Metabolite M1, hydroxy DCDQ]	12.6 ng/mL	6.52 ng/mL	88.4 ng/mL	59.7 ng/mL	41.9 ng/mL	2.0^d %	1.9^d %	14%	9.1%	8.9%				
